Data as given in the supplement of paper PMC11451515.

Tested on: SEM cells
Experiment: cell viability relative to DMSO control; higher = less cytotoxic
Details: 48 h
How it was run: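 NOMO1, SEM and P12-Ichikawa leukemia cells spent at least four passages adapting to each medium before use. They were seeded at 500 cells/well (NOMO1, SEM) or 1000 cells/well (P12-Ichikawa) in 5 μl in 1536-well plates and pin-dosed with library compounds in DMSO at 11 threefold steps from 47 μM down to 0.79 nM. After 48 h at 37°C, CellTiter-Glo One luminescence was read. Viability is reported as a percentage of the DMSO wells on each plate, with cell-free wells as background.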

[1] = HPLM + 10% dialyzed FBS, 0.000781 µM
[2] = HPLM + 10% dialyzed FBS, 0.00234 µM
[3] = HPLM + 10% dialyzed FBS, 0.00702 µM
[4] = HPLM + 10% dialyzed FBS, 0.0211 µM
[5] = HPLM + 10% dialyzed FBS, 0.0632 µM
[6] = HPLM + 10% dialyzed FBS, 0.19 µM
[7] = HPLM + 10% dialyzed FBS, 0.569 µM
[8] = HPLM + 10% dialyzed FBS, 1.71 µM
[9] = HPLM + 10% dialyzed FBS, 5.12 µM
[10] = HPLM + 10% dialyzed FBS, 15.4 µM
[11] = HPLM + 10% dialyzed FBS, 46.1 µM
[12] = RPMI 5 mM glucose + 10% FBS, 0.000781 µM
[13] = RPMI 5 mM glucose + 10% FBS, 0.00234 µM
[14] = RPMI 5 mM glucose + 10% FBS, 0.00702 µM
[15] = RPMI 5 mM glucose + 10% FBS, 0.0211 µM
[16] = RPMI 5 mM glucose + 10% FBS, 0.0632 µM
[17] = RPMI 5 mM glucose + 10% FBS, 0.19 µM
[18] = RPMI 5 mM glucose + 10% FBS, 0.569 µM
[19] = RPMI 5 mM glucose + 10% FBS, 1.71 µM
[20] = RPMI 5 mM glucose + 10% FBS, 5.12 µM
[21] = RPMI 5 mM glucose + 10% FBS, 15.4 µM
[22] = RPMI 5 mM glucose + 10% FBS, 46.1 µM
[23] = RPMI 5 mM glucose + 10% dialyzed FBS, 0.000781 µM
[24] = RPMI 5 mM glucose + 10% dialyzed FBS, 0.00234 µM
[25] = RPMI 5 mM glucose + 10% dialyzed FBS, 0.00702 µM
[26] = RPMI 5 mM glucose + 10% dialyzed FBS, 0.0211 µM
[27] = RPMI 5 mM glucose + 10% dialyzed FBS, 0.0632 µM
[28] = RPMI 5 mM glucose + 10% dialyzed FBS, 0.19 µM
[29] = RPMI 5 mM glucose + 10% dialyzed FBS, 0.569 µM
[30] = RPMI 5 mM glucose + 10% dialyzed FBS, 1.71 µM
[31] = RPMI 5 mM glucose + 10% dialyzed FBS, 5.12 µM
[32] = RPMI 5 mM glucose + 10% dialyzed FBS, 15.4 µM
[33] = RPMI 5 mM glucose + 10% dialyzed FBS, 46.1 µM

| SMILES | cell viability [1] | cell viability [2] | cell viability [3] | cell viability [4] | cell viability [5] | cell viability [6] | cell viability [7] | cell viability [8] | cell viability [9] | cell viability [10] | cell viability [11] | cell viability [12] | cell viability [13] | cell viability [14] | cell viability [15] | cell viability [16] | cell viability [17] | cell viability [18] | cell viability [19] | cell viability [20] | cell viability [21] | cell viability [22] | cell viability [23] | cell viability [24] | cell viability [25] | cell viability [26] | cell viability [27] | cell viability [28] | cell viability [29] | cell viability [30] | cell viability [31] | cell viability [32] | cell viability [33] |
| --- | --- | --- | --- | --- | --- | --- | --- | --- | --- | --- | --- | --- | --- | --- | --- | --- | --- | --- | --- | --- | --- | --- | --- | --- | --- | --- | --- | --- | --- | --- | --- | --- | --- |
| Nc1ncnc2c1c(-c1cccc(OCc3ccccc3)c1)cn2C1CC(CN2CCCC2)C1 (stereo unspecified) | 97.6% | 112% | 120% | 108% | 113% | 111% | 89.8% | 83.1% | 63.8% | 45.4% | 29.6% | 89.4% | 113% | 125% | 115% | 128% | 121% | 103% | 95.3% | 87.8% | 54.8% | 31.5% | – | – | – | – | – | – | – | – | – | – | – |
| N#C/N=C(\NCCCCCCOc1ccc(Cl)cc1)Nc1ccncc1 | 18.5% | 14.6% | 11.7% | 11.6% | 10.7% | 9.6% | 9.68% | 8.04% | 7.4% | 6.52% | 4.48% | 11% | 12.1% | 9.46% | 9.27% | 8.63% | 8.09% | 6.61% | 4.33% | 4.15% | 3.83% | 1.91% | 15% | 11% | 9.5% | 8.99% | 8.27% | 8.14% | 7.35% | 6.51% | 5.93% | 4.36% | 2.76% |
| C[C@H]1O[C@H](C[C@H](O)[C@@H]1O)O[C@H]2[C@@H](O)C[C@@H](O[C@@H]2C)O[C@H]3[C@@H](O)C[C@@H](O[C@@H]3C)O[C@H]4CC[C@@]5(C)[C@H](CC[C@@H]6[C@@H]5C[C@@H](O)[C@]7(C)[C@H](CC[C@]67O)C/8=C/C(=O)OC8)C4 | 117% | 106% | 122% | 123% | 30.4% | 15.2% | 11% | 7.74% | 7.71% | 8.32% | 6.4% | – | – | – | – | – | – | – | – | – | – | – | – | – | – | – | – | – | – | – | – | – | – |
| COc1cc(N2CCC(N(C)C)CC2)ccc1Nc1ncc(Cl)c(Nc2ccccc2P(C)(C)=O)n1 | 117% | 112% | 116% | 114% | 110% | 82.3% | 51% | 28.3% | 17.7% | 11.9% | 5.99% | 114% | 105% | 114% | 109% | 128% | 95.4% | 57.8% | 18.2% | 8.88% | 6.45% | 4.89% | – | – | – | – | – | – | – | – | – | – | – |
| OCCC#Cc1nc(-c2ccc(F)cc2)c(-c2ccncc2)n1CCCc1ccccc1 | 86.8% | 115% | 115% | 120% | 118% | 109% | 131% | 123% | 124% | 105% | 88.4% | 98.3% | 122% | 112% | 118% | 103% | 130% | 116% | 127% | 126% | 107% | 85.8% | – | – | – | – | – | – | – | – | – | – | – |
| O=C1NC(=O)/C(=C/c2ccc(-c3ccc(F)cc3O)o2)S1 | 127% | 118% | 110% | 122% | 123% | 111% | 111% | 102% | 124% | 94.1% | 87.1% | – | – | – | – | – | – | – | – | – | – | – | 114% | 129% | 120% | 122% | 112% | 121% | 111% | 84.6% | 87.3% | 98.6% | 74.8% |
| CCN(c1ccccc1)c1cc(NC)[n+](C)c(C)n1 | 110% | 107% | 108% | 101% | 107% | 114% | 99.5% | 116% | 104% | 102% | 97.9% | 111% | 97.2% | 96.4% | 105% | 99.5% | 101% | 87.7% | 100% | 105% | 95.3% | 101% | 101% | 105% | 97.4% | 108% | 99.9% | 97.4% | 105% | 99.1% | 107% | 106% | 100% |
| NC(=O)Nc1cc(-c2cccc(F)c2)sc1C(=O)N[C@H]1CCCNC1 | 88.8% | 62% | 66.4% | 46.3% | 38.2% | 28.6% | 27.5% | 27.1% | 23.3% | 19% | 20.3% | 110% | 84.4% | 71.6% | 45.2% | 45% | 37.6% | 32.7% | 27.7% | 20.4% | 11.3% | 13.7% | 98.9% | 69.4% | 52.4% | 44.5% | 32.2% | 26.3% | 25.5% | 21.3% | 16.7% | 12.4% | 10.6% |
| OCCn1cc(-c2cnc3nnn(Cc4ccc5ncccc5c4)c3n2)cn1 | 102% | 107% | 99.5% | 98.1% | 97.9% | 89.3% | 89.5% | 91.5% | 85.3% | 72.1% | 38.5% | 122% | 138% | 124% | 133% | 120% | 116% | 109% | 90.7% | 82.1% | 73.9% | 26.6% | 84.6% | 97.9% | 102% | 108% | 107% | 106% | 118% | 97.3% | 82% | 60.5% | 33.4% |
